Like-named read-outs stand apart in the source and are kept apart here.
How the values were obtained:
[1] = target: T1, HCV NS3/4A protease complex, BMS strain (UniProt P27958, species not given/STRAIN_BMS); test: FRET peptide assay to monitor HCV NS3/4A proteolytic activity (BMS strain); assay type: biochemical, Hepatitis C virus (genotype 1a)
T1 construct: other: NS3/4A BMS strain; activity range class; numeric values, unit not given; said of H77 and J4L6S; fused on or other part: A three-lysine solubilising tail at the C-terminus of NS4A; A His tag is implied by the pET21b vector and Ni-NTA purification; Both are printed for the H77 and J4L6S constructs and apply to BMS by inference
Description: HCV NS3 protease complexes, derived from the BMS strain, H77 strain or J4L6S strain, were generated, as described below. These purified recombinant proteins were generated for use in a homogeneous assay (see below) to provide an indication of how effective compounds of the present disclosure would be in inhibiting HCV NS3 proteolytic activity.
Serum from an HCV-infected patient was obtained from Dr. T. Wright, San Francisco Hospital. An engineered full-length cDNA (compliment deoxyribonucleic acid) template of the HCV genome (BMS strain) was constructed from DNA fragments obtained by reverse transcription-PCR (RT-PCR) of serum RNA (ribonucleic acid) and using primers selected on the basis of homology between other genotype 1a strains. From the determination of the entire genome sequence, a genotype 1a was assigned to the HCV isolate according to the classification of Simmonds et al. (See P Simmonds, K A Rose, S Graham, S W Chan, F McOmish, B C Dow, E A Follett, P L Yap and H Marsden, J. Clin. Microbiol., 31(6), 1493-1503 (1993)). […] The infectious clones, H77 (1a genotype) and J4L6S (1b genotype) were obtained from R. Purcell (NIH) and the sequences are published in Genbank (AAB67036, see Yanagi, M., Purcell, R. H., Emerson, S. U. and Bukh, J. Proc. Natl. Acad. Sci. U.S.A. 94(16), 8738-8743 (1997); AF054247, see Yanagi, M., St Claire, M., Shapiro, M., Emerson, S. U., Purcell, R. H. and Bukh, J. Virology 244 (1), 161-172. (1998)).
NS3/4A protease complex-containing fractions were pooled and loaded on a desalting column Superdex-S200 pre-equilibrated with buffer D (25 mM HEPES, pH 7.5, 20% glycerol, 300 mM NaCl, 0.2% Triton X-100, 10 mM βME). Sample was loaded at a flow rate of 1 mL/min. NS3/4A protease complex-containing fractions were pooled and concentrated to approximately 0.5 mg/ml. The purity of the NS3/4A protease complexes, derived from the BMS, H77 and J4L6S strains, were judged to be greater than 90% by SDS-PAGE and mass spectrometry analyses. The enzyme was stored at −80° C., thawed on ice and diluted prior to use in assay buffer.
The purpose of this in vitro assay was to measure the inhibition of HCV NS3 protease complexes, derived from the BMS strain, H77 strain or J4L6S strain, as described above, by compounds of the present disclosure. This assay provides an indication of how effective compounds of the present disclosure would be in inhibiting HCV NS3 proteolytic activity.
In order to monitor HCV NS3/4A protease activity, an NS3/4A peptide substrate was used. The substrate was RET S1 (Resonance Energy Transfer Depsipeptide Substrate; AnaSpec, Inc. cat #22991) (FRET peptide), described by Taliani et al. in Anal. Biochem. 240(2):60-67 (1996). The sequence of this peptide is loosely based on the NS4A/NS4B natural cleavage site for the HCV NS3 protease except there is an ester linkage rather than an amide bond at the cleavage site. The peptide also contains a fluorescence donor, EDANS, near one end of the peptide and an acceptor, DABCYL, near the other end. The fluorescence of the peptide is quenched by […] resonance energy transfer (RET) between the donor and the acceptor, but as the NS3 protease cleaves the peptide the products are released from RET quenching and the fluorescence of the donor becomes apparent.
The peptide substrate was incubated with one of the three recombinant NS3/4A protease complexes, in the absence or presence of a compound of the present disclosure. The inhibitory effects of a compound were determined by monitoring the formation of fluorescent reaction product in real time using a Cytofluor Series 4000.
Assay buffer: 50 mM HEPES, pH 7.5; 0.15 M NaCl; 0.1% Triton; 15% Glycerol; 10 mM βME. Substrate: 2 μM final concentration (from a 2 mM stock solution in DMSO stored at −20° C.). HCV NS3/4A protease type 1a (1b), 2-3 nM final concentration (from a 5 μM stock solution in 25 mM HEPES, pH 7.5, 20% glycerol, 300 mM NaCl, 0.2% Triton-X100, 10 mM βME). […]

[2] = test system: HCV replicon (strain 1b) in HUH-7 cells; test: HCV replicon FRET assay; assay type: cell-based, Hepatitis C virus; settings: activity range class
Description: An HCV replicon whole cell system was established as described by Lohmann V, Korner F, Koch J, Herian U, Theilmann L, Bartenschlager R., Science 285(5424): 110-3 (1999). This system enabled us to evaluate the effects of our HCV Protease compounds on HCV RNA replication. Briefly, using the HCV strain 1b sequence described in the Lohmann paper (Assession number: AJ238799), an HCV cDNA was synthesized by Operon Technologies, Inc. (Alameda, Calif.), and the full-length replicon was then assembled in plasmid pGem9zf(+) (Promega, Madison, Wis.) using standard molecular biology techniques. The replicon consists of (i) the HCV 5′ UTR fused to the first 12 amino acids of the capsid protein, (ii) the neomycin phosphotransferase gene (neo), (iii) the IRES from encephalomyocarditis virus (EMCV), and (iv) HCV NS3 to NS5B genes and the HCV 3′ UTR. Plasmid DNAs were linearized with ScaI and RNA transcripts were synthesized in vitro using the T7 MegaScript transcription kit (Ambion, Austin, Tex.) according to manufacturer's directions. In vitro transcripts of the cDNA were transfected into the human hepatoma cell line, HUH-7. […] Resulting cell lines were characterized for positive and negative strand RNA production and protein production over time.
The HCV replicon FRET assay was developed to monitor the inhibitory effects of compounds described in the disclosure on HCV viral replication. HUH-7 cells, constitutively expressing the HCV replicon, were grown in Dulbecco's Modified Eagle Media (DMEM) (Gibco-BRL) containing 10% Fetal calf serum (FCS) (Sigma) and 1 mg/ml G418 (Gibco-BRL). Cells were seeded the night before (1.5×10^4 cells/well) in 96-well tissue-culture sterile plates. Compound and no compound controls were prepared in DMEM containing 4% FCS, 1:100 Penicillin/Streptomysin (Gibco-BRL), 1:100 L-glutamine and 5% DMSO in the dilution plate (0.5% DMSO final concentration in the assay). Compound/DMSO mixes were added to the cells and incubated for 4 days at 37° C. After 4 days, cells were first assessed for cytotoxicity using alamar Blue (Trek Diagnotstic Systems) for a CC50 reading. The toxicity of compound (CC50) was determined by adding 1/10th volume of alamarBlue to the media incubating the cells. After 4 hours, the fluorescence signal from each well was read, with an excitation wavelength at 530 nm and an emission wavelength of 580 nm, using the Cytofluor Series 4000 (Perspective Biosystems). Plates were then rinsed thoroughly with Phosphate-Buffered Saline (PBS) (3 times 150 μl).

[3] = read-out: HCV Protease (IC50); NS3/4A BMS strain; activity range class
[4] = Hepatitis C virus, Huh-7, read-out: HCV Pro Replicon (EC50), HCV replicon cell assay

T1 sequence (P27958 1027-1657, change not shown, one chain of several): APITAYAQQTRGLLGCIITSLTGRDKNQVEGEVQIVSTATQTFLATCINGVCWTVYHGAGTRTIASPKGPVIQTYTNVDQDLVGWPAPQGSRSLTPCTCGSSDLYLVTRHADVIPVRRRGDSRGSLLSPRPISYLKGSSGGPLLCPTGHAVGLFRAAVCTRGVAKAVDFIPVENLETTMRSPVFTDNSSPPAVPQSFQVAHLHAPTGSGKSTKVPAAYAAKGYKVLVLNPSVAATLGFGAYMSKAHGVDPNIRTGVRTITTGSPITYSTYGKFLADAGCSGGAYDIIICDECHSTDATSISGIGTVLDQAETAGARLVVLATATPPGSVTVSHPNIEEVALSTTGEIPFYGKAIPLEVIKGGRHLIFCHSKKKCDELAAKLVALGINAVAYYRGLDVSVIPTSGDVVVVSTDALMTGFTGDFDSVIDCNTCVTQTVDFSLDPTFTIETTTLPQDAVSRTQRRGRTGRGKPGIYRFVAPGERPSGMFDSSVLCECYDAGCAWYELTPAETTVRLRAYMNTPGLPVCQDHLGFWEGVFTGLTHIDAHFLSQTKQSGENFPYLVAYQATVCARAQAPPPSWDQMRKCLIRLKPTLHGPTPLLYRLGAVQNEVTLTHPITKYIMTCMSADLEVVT

| Structure (SMILES) | IC50 [1, 3] [nM] | further results |
| --- | --- | --- |
| C=C[C@@H]1C[C@]1(NC(=O)[C@@H]1C[C@@H](Oc2ncc(OC)c3ccc(Cl)cc23)CN1C(=O)C(Nc1cccc(C(=O)NC)c1)C(C)(C)C)C(=O)NS(=O)(=O)C1CC1 (stereo partly shown) [Compound 202A] | 0.6 to 20 | EC50 [2, 4]: 3 to 100 nM |
| C=C[C@@H]1C[C@]1(NC(=O)[C@@H]1C[C@@H](Oc2nccc3cc(OC)ccc23)CN1C(=O)[C@H](Nc1nc(C)cc(C)n1)C(C)C)C(=O)NS(=O)(=O)C1CC1 [6 first isomer, N-(4,6-dimethyl-2-pyrimidinyl)-D-valyl-(4R)—N-((1R,2S)-1-((cyclopropylsulfonyl)carbamoyl)-2-vinylcyclopropyl)-4-((6-methoxy-1-isoquinolinyl)oxy)-L-prolinamide] | 20 to 200 | EC50 [2, 4]: > 1000 nM |
| C=C[C@@H]1C[C@]1(NC(=O)[C@@H]1C[C@@H](Oc2nc(OC)cc3cc(OC)ccc23)CN1C(=O)C(Nc1ccccc1)C(C)(C)C)C(=O)NS(=O)(=O)C1CC1 (single isomer, unassigned) [20 first isomer] | 0.6 to 20 | EC50 ([2]; read-out: HCV Pro Replicon (EC50), HCV replicon cell assay): 3 to 100 nM |
| C=C[C@@H]1C[C@]1(NC(=O)[C@@H]1C[C@@H](Oc2nccc3cc(OC)ccc23)CN1C(=O)[C@@H](Nc1nc(C)cc(C)n1)C(C)C)C(=O)NS(=O)(=O)C1CC1 [6 second isomer, N-(4,6-dimethyl-2-pyrimidinyl)-L-valyl-(4R)—N-((1R,2S)-1-((cyclopropylsulfonyl)carbamoyl)-2-vinylcyclopropyl)-4-((6-methoxy-1-isoquinolinyl)oxy)-L-prolinamide] | 0.6 to 20 | EC50 [2, 4]: 100 to 1000 nM |
| C=C[C@@H]1C[C@]1(NC(=O)[C@@H]1C[C@@H](Oc2ncc(OC)c3ccc(Cl)cc23)CN1C(=O)C(Nc1ccc(OC(F)F)nc1)C(C)(C)C)C(=O)NS(=O)(=O)C1CC1 (single isomer, unassigned) [409 - first isomer] | 20 to 200 |  |
| C=C[C@@H]1C[C@]1(NC(=O)[C@@H]1C[C@@H](Oc2nc3c(c4cc(OC)ccc24)OCCN3C)CN1C(=O)[C@@H](Nc1ccc(F)c(F)c1)C(C)(C)C)C(=O)NS(=O)(=O)C1CC1 [235 first isomer, N-(3,4-difluorophenyl)-3-methyl-L-valyl-(4R)—N-((1R,2S)-1-((cyclopropylsulfonyl)carbamoyl)-2-vinylcyclopropyl)-4-((9-methoxy-4-methyl-3,4-dihydro-2H-[1,4]oxazino[3,2-c]isoquinolin-6-yl)oxy)-L-prolinamide] | > 200 |  |
| C=C[C@@H]1C[C@]1(NC(=O)[C@@H]1C[C@@H](Oc2ncc(OC)c3ccc(Cl)cc23)CN1C(=O)[C@H](Nc1cccc(C(=O)NC(C)(C)c2ccccc2)c1)C(C)(C)C)C(=O)NS(=O)(=O)C1CC1 (single isomer, unassigned; isomer 3) [216 second isomer] |  | IC50 ([1]; NS3/4A BMS strain; activity range class; read-out: HCV Protease (IC50)): > 200 nM |
| C=C[C@@H]1C[C@]1(NC(=O)[C@@H]1C[C@@H](Oc2ncc(OC)c3ccc(Cl)cc23)CN1C(=O)[C@H](Nc1ccc(S(=O)(=O)NC(C)(C)C)cc1)C(C)(C)C)C(=O)NS(=O)(=O)C1CC1 [214 second isomer, N-(4-(tert-butylsulfamoyl)phenyl)-3-methyl-D-valyl-(4R)-4-((7-chloro-4-methoxy-1-isoquinolinyl)oxy)-N-((1R,2S)-1-((cyclopropylsulfonyl)carbamoyl)-2-vinylcyclopropyl)-L-prolinamide] | > 200 |  |
| C=C[C@@H]1C[C@]1(NC(=O)[C@@H]1C[C@@H](Oc2ncc(OC)c3ccc(Cl)cc23)CN1C(=O)[C@H](Nc1ccc(C(N)=O)cc1)C(C)(C)C)C(=O)NS(=O)(=O)C1CC1 [226 second isomer, N-(4-carbamoylphenyl)-3-methyl-D-valyl-(4R)-4-((7-chloro-4-methoxy-1-isoquinolinyl)oxy)-N-((1R,2S)-1-((cyclopropylsulfonyl)carbamoyl)-2-vinylcyclopropyl)-L-prolinamide] | > 200 |  |
| C=C[C@@H]1C[C@]1(NC(=O)[C@@H]1C[C@@H](Oc2ncc(OC)c3ccc(Cl)cc23)CN1C(=O)[C@H](Nc1cccc(F)c1F)C(C)(C)C)C(=O)NS(=O)(=O)C1CC1 [208 second isomer, N-(2,3-difluorophenyl)-3-methyl-D-valyl-(4R)-4-((7-chloro-4-methoxy-1-isoquinolinyl)oxy)-N-((1R,2S)-1-((cyclopropylsulfonyl)carbamoyl)-2-vinylcyclopropyl)-L-prolinamide] | > 200 |  |
| C=C[C@@H]1C[C@]1(NC(=O)[C@@H]1C[C@@H](Oc2ncc(OC)c3ccc(Cl)cc23)CN1C(=O)[C@H](Nc1cccc(C(N)=O)c1)C(C)(C)C)C(=O)NS(=O)(=O)C1CC1 [217 second isomer, N-(3-carbamoylphenyl)-3-methyl-D-valyl-(4R)-4-((7-chloro-4-methoxy-1-isoquinolinyl)oxy)-N-((1R,2S)-1-((cyclopropylsulfonyl)carbamoyl)-2-vinylcyclopropyl)-L-prolinamide] | > 200 |  |
| C=C[C@@H]1C[C@]1(NC(=O)[C@@H]1C[C@@H](Oc2ncc(OC)c3ccc(Cl)cc23)CN1C(=O)C(Nc1ccc(OC(F)F)nc1)C(C)(C)C)C(=O)NS(=O)(=O)C1CC1 (single isomer, unassigned) [409 - second isomer] | > 200 |  |

From US7772180B2, “Hepatitis C virus inhibitors” (Bristol-Myers Squibb Company, priority 2006, dated 2010)
